Results from article PMC2375326, “In vitro evaluation of amino acid prodrugs of novel antitumour 2-(4-amino-3-methylphenyl)benzothiazoles” (British Journal of Cancer, 2002).

What was measured:
[1] = system: CYP1A1 protein expression in HCT 116 cells; test: Western blot of CYP1A1 protein, HCT 116 lysates; format: cell-based, human
Experimental: (§1) Whole cell lysates were prepared for examination of CYP1A1 protein expression from untreated MCF-7, IGROV-1 and HCT 116 cultures and following exposure of cells to compounds 1, 2, 2a, 2b, 3, 3a, 3b, 4, 4a and 4b. Following protein determination (n=3, [Bradford, 1976]) and addition of sample buffer, samples were boiled at 95°C for 5 min and solubilised proteins (50 μg) were separated by sodium dodecyl sulphate (SDS) polyacrylamide gel (10%) electrophoresis. Proteins were electroblotted to polyvinylidene difluoride (PVDF) membranes and probed for CYP1A1 protein with polyclonal antiserum specific for human CYP1A1/1A2 (Gentest Corporation). Secondary antibody was conjugated to alkaline phosphatase, and CYP1A1 was detected following brief (<10 min) incubation with bromochloroindolyl phosphate and nitro-blue tetrazolium in alkaline phosphatase buffer. Molecular weight markers and a positive control of recombinant CYP1A1 (Gentest Corporation), included in all blots, confirmed detection of 52 kDa CYP1A1 protein.

MALME-3M = test: NCI in vitro cytotoxicity assay (SRB), MALME-3M; format: cell-based; details: Homo sapiens, 48 h exposure, sulforhodamine B assay, mean graph, read-out: Log10 GI50 (MALME-3M) (converted)
Experimental: (§2) Cell culture and drug application procedures have been described previously ([Boyd and Paull, 1995]). Briefly, cell lines were inoculated into a series of 96-well microtiter plates, with varied seeding densities depending on growth characteristics of each cell line. Following a 24 h drug free incubation, test agents were added at five 10-fold dilutions with a maximum concentration of 100 μM. Cellular protein levels were determined after 48 h drug exposure by sulphorhodamine B colorimetry.

SK-MEL-2 = test: NCI in vitro cytotoxicity assay (SRB), SK-MEL-2; format: cell-based; details: Homo sapiens, 48 h exposure, sulforhodamine B assay, mean graph, read-out: Log10 GI50 (SK-MEL-2) (converted)
Experimental: as §2

BT-549 = test: NCI in vitro cytotoxicity assay (SRB), BT-549; format: cell-based; details: Homo sapiens, 48 h exposure, sulforhodamine B assay, mean graph, read-out: Log10 GI50 (BT-549) (converted)
Experimental: as §2

OVCAR-5 = test: NCI in vitro cytotoxicity assay (SRB), OVCAR-5; format: cell-based; details: Homo sapiens, 48 h exposure, sulforhodamine B assay, mean graph, read-out: Log10 GI50 (OVCAR-5) (converted)
Experimental: as §2

SN12C = test: NCI in vitro cytotoxicity assay (SRB), SN12C; format: cell-based; details: Homo sapiens, 48 h exposure, sulforhodamine B assay, mean graph, read-out: Log10 GI50 (SN12C) (converted)
Experimental: as §2

UACC-257 = test: NCI in vitro cytotoxicity assay (SRB), UACC-257; format: cell-based; details: Homo sapiens, 48 h exposure, sulforhodamine B assay, mean graph, read-out: Log10 GI50 (UACC-257) (converted)
Experimental: as §2

HT29 = test: NCI in vitro cytotoxicity assay (SRB), HT29; format: cell-based; details: Homo sapiens, HT-29; 48 h exposure, sulforhodamine B assay, mean graph; read-out: Log10 GI50 (HT29) (converted)
Experimental: as §2

OVCAR-3 = test: NCI in vitro cytotoxicity assay (SRB), OVCAR-3; format: cell-based; details: Homo sapiens, 48 h exposure, sulforhodamine B assay, mean graph, read-out: Log10 GI50 (OVCAR-3) (converted)
Experimental: as §2

IGROV1 = test: NCI in vitro cytotoxicity assay (SRB), IGROV1; format: cell-based; details: Homo sapiens, IGROV-1; 48 h exposure, sulforhodamine B assay, mean graph; read-out: Log10 GI50 (IGROV1) (converted)
Experimental: as §2

HS 578T = test: NCI in vitro cytotoxicity assay (SRB), HS 578T; format: cell-based; details: Homo sapiens, 48 h exposure, sulforhodamine B assay, mean graph, read-out: Log10 GI50 (HS 578T) (converted)
Experimental: as §2

SF-539 = test: NCI in vitro cytotoxicity assay (SRB), SF-539; format: cell-based; details: Homo sapiens, 48 h exposure, sulforhodamine B assay, mean graph, read-out: Log10 GI50 (SF-539) (converted)
Experimental: as §2

HCT-116 = test: NCI in vitro cytotoxicity assay (SRB), HCT-116; format: cell-based; details: Homo sapiens, 48 h exposure, sulforhodamine B assay, mean graph, read-out: Log10 GI50 (HCT-116) (converted)
Experimental: as §2

UACC-62 = test: NCI in vitro cytotoxicity assay (SRB), UACC-62; format: cell-based; details: Homo sapiens, 48 h exposure, sulforhodamine B assay, mean graph, read-out: Log10 GI50 (UACC-62) (converted)
Experimental: as §2

[2] = system: CYP1A1 protein expression in MCF-7 cells; test: Western blot of CYP1A1 protein, MCF-7 lysates; format: cell-based, human; details: 1 μM, 24 h
Experimental: as §1

NCI-H226 = test: NCI in vitro cytotoxicity assay (SRB), NCI-H226; format: cell-based; details: Homo sapiens, 48 h exposure, sulforhodamine B assay, mean graph, read-out: Log10 GI50 (NCI-H226) (converted)
Experimental: as §2

DU-145 = test: NCI in vitro cytotoxicity assay (SRB), DU-145; format: cell-based; details: Homo sapiens, 48 h exposure, sulforhodamine B assay, mean graph, read-out: Log10 GI50 (DU-145) (converted)
Experimental: as §2

UO 31 = test: NCI in vitro cytotoxicity assay (SRB), UO 31; format: cell-based; details: Homo sapiens, 48 h exposure, sulforhodamine B assay, mean graph, read-out: Log10 GI50 (UO 31) (converted)
Experimental: as §2

OVCAR-8 = test: NCI in vitro cytotoxicity assay (SRB), OVCAR-8; format: cell-based; details: Homo sapiens, 48 h exposure, sulforhodamine B assay, mean graph, read-out: Log10 GI50 (OVCAR-8) (converted)
Experimental: as §2

TK-10 = test: NCI in vitro cytotoxicity assay (SRB), TK-10; format: cell-based; details: Homo sapiens, 48 h exposure, sulforhodamine B assay, mean graph, read-out: Log10 GI50 (TK-10) (converted)
Experimental: as §2

NCI-H322M = test: NCI in vitro cytotoxicity assay (SRB), NCI-H322M; format: cell-based; details: Homo sapiens, 48 h exposure, sulforhodamine B assay, mean graph, read-out: Log10 GI50 (NCI-H322M) (converted)
Experimental: as §2

A549/ATCC = test: NCI in vitro cytotoxicity assay (SRB), A549/ATCC; format: cell-based; details: Homo sapiens, 48 h exposure, sulforhodamine B assay, mean graph, read-out: Log10 GI50 (A549/ATCC) (converted)
Experimental: as §2

Row | CYP1A1 protein expression (Western blot) [1] | CYP1A1 protein expression (Western blot) [2] | Compound | GI50 (MALME-3M) [µM] | GI50 (SK-MEL-2) [µM] | GI50 (BT-549) [µM] | GI50 (OVCAR-5) [µM] | GI50 (SN12C) [µM] | GI50 (UACC-257) [µM] | GI50 (HT29) [µM] | GI50 (OVCAR-3) [µM] | GI50 (IGROV1) [µM] | GI50 (HS 578T) [µM] | GI50 (SF-539) [µM] | GI50 (HCT-116) [µM] | GI50 (UACC-62) [µM] | GI50 (NCI-H226) [µM] | GI50 (DU-145) [µM] | GI50 (UO 31) [µM] | GI50 (OVCAR-8) [µM] | GI50 (TK-10) [µM] | further results
1 | not induced | induced | Cc1cc(-c2nc3cc(F)ccc3s2)ccc1N [Compound 2, 2-(4-Amino-3-methylphenyl)-5-fluorobenzothiazole] | 91.2 | > 100 | > 100 | 0.0107 | 74.1 | 77.6 | 63.1 | 24.5 | < 0.01 | 46.8 | 27.5 | 15.8 | 57.5 | < 0.01 | 95.5 | 85.1 | > 100 | < 0.01 | GI50 (NCI-H322M): 11 µM; GI50 (A549/ATCC): 6.92 µM
2 | not induced | induced | Cc1cc(-c2nc3cc(F)ccc3s2)ccc1NC(=O)[C@@H](N)CCCCN [Compound 2b] | 17.4 | 2.51 | 14.1 | 0.126 | 12.3 | 15.8 | 3.24 | 10.7 | < 0.01 | 3.63 | 14.1 | 2.88 | 14.1 | 0.155 | 16.2 | 3.09 | 11.2 | 0.0174 | GI50 (NCI-H322M): 3.09 µM; GI50 (A549/ATCC): 1.7 µM
